Reference: US20040067565A1, “Selective functionalization of hydrocarbons with isolated oxygenases and mediator based regeneration” (priority 2002, published 2004)
Like-named read-outs stand apart in the source and are kept apart here. Marks after values point to notes of the source that are not given here.

Key:
[1] = biological target: T1, monooxygenase component of styrene monooxygenase (StyA) (Pseudomonas sp, UniProt O50214); assay: [Cp*Rh(bpy)(H2O)]2+ driven, StyA-catalyzed epoxidation / sulfoxidation; format: biochemical; conditions: substrate 2 mM, reaction time 15 min, 37 °C, 0.2 mM [Cp*Rh(bpy)(H2O)]2+, 1.47 μM StyA; for Epoxides concentration: 20 μM FAD, Positive = no standard substances available yet
Procedure: In a typical experimental setup 1 ml total volume was placed in an Eppendorf cup in a Thermomixer. The temperature was set to 37° C. and the reaction mixture was shaken thoroughly to ensure O2 intake.
Product formation was followed by reversed phase HPLC. The HPLC system (Merck) consisted of a D-7000 controller, L-7200 autosampler, L-7400 UV detector, L-7100 liquid chromatography pump and was fitted with a CC250/4 Nucleosil 100-5 C18 HD column. Samples were eluted under isocratic conditions using 60% acetonitrile and 40% water at a flow rate of 1 ml×min^−1. The elution pattern was monitored at 210 nm.
0.2 mM [Cp*Rh(bpy)(H2O)]^2+, 0.05 mM FAD, 0.005 mM FMN, 2 mM styrene, 280 U catalase, and 1.16 μM StyA in 50 mM potassium phosphate buffer with 150 mM sodium formate were incubated at 37° C. and agitation at 1500 rpm. At intervals, reactions were stopped by addition of one equivalent volume of cold acetonitrile. After centrifugation (15 min at 4° C. and 23000×g the upper phase was analyzed by reverse phase HPLC. Concentrations were corrected according to the phase ratio after centrifugation. Results from this experiment are given in FIG. 10 and Table 3.
0.2 mM [Cp*Rh(bpy)(H2O)]^2+, 0.02 mM FAD, 2 mM substrate, 200 U catalase, and 1.47 μM StyA in 50 mM potassium phosphate buffer with 150 mM sodium formate were incubated at 37° C. and agitation at 1500 rpm.
Styrene oxide was analyzed using a CC200/4 Nucleodex α-PM (Machery-Nagel). As eluent 60% methanol and 40% 6.2 mM TEAA in water was used at a flow rate of 0.7 ml×min^−1. 1,2-Dihydronaphthalene oxide, trans-β-Methylstyrene oxide, indene oxide, and methyl phenyl sulfoxide were extracted from the reaction buffer with one aliquot hexane und analyzed unsing normal phase HPLC with a CHIRACEL OB—H column and hexane:isopropanol 95:5 (9:1 for methyl phenyl sulfoxide) at a flow rate of 0.5 ml*min^−1 as mobile phase. As reference either authentical samples of racemic epoxides were used. (Table 4). […]

[2] = biological target: T1, monooxygenase component of styrene monooxygenase (StyA); assay: as above; format: biochemical; conditions: substrate 4 mM, reaction time 15 min, 37 °C, 0.2 mM [Cp*Rh(bpy)(H2O)]2+, 1.47 μM StyA
[3] = biological target: T2, Alkane Hydoxylase from P. Oleovorans (AlkB) (Ectopseudomonas oleovorans, UniProt P12691); assay: Direct reduction of alkane hydroxylase AlkB by [Cp*Rh(bpy)(H2O)]2+, hydroxylation of 3-ethyl toluene; format: biochemical; conditions: 200 μM [Cp*Rh(bpy)(H2O)]2+, 2 mM 3-ethyl toluene, AlkB crude extract, 30 °C, 20 minutes; average of 4 experiments
T2 construct: made in house; host or cells: E. coli
Procedure: In a typical experiment, 1 ml total volume of 200 μM [Cp*Rh(bpy)(H2O)]^2+ are incubated with 2 mM 3-ethyl toluene and 100 μl of a cell crude extract of recombinant E. coli overexpressing AlkB in a final volume of 1 ml 100 mM potassium phosphate buffer (pH 7.4) supplemented with 150 mM sodium formate and 1 mg/ml bovine serum albumin at 30° C. and vigorous shaking. After 20 minutes the reaction is stopped by addition of […] perchloric acid (10%). After centrifugation the supernatant is extracted with one aliquot of hexane. The organic phase is analyzed by normal phase HPLC (Nucleosil 250/3 100-5 C, mobile phase: hexane/isopropanol 95:5, flow rate=0.5 ml min^−1).

CytC = CytC (Equus caballus, UniProt P00004)
Procedure: On the other hand CytC is inactivated by hydrogen peroxide, which can be followed by the disappearing Soret-peak (heme absorbance at k=408 nm).
In a typical experiment […] CytC is incubated at 30° C. in the presence of 1 mM hydrogen peroxide. At intervals of 2 min the UV-spectrum (between 300 and 650 nm) is recorded (FIG. 18).
In identical experiments, the absorbance at 408 nm was followed over time.

CytC, sequence (P00004 whole entry): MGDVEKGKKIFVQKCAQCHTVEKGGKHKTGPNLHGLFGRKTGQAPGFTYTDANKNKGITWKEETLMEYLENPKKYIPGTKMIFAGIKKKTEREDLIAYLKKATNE
T1 sequence (O50214 whole entry): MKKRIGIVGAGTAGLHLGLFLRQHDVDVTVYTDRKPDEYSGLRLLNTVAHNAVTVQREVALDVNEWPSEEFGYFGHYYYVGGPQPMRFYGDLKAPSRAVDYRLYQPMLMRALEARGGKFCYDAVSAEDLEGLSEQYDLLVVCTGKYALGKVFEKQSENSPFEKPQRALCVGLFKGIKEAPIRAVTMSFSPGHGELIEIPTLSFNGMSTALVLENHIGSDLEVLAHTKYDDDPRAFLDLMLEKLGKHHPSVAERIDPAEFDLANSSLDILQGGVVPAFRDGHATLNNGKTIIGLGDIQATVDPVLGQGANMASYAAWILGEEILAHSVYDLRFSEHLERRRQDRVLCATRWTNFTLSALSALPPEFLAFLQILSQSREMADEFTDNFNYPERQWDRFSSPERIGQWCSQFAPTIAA
T2 sequence (P12691 whole entry): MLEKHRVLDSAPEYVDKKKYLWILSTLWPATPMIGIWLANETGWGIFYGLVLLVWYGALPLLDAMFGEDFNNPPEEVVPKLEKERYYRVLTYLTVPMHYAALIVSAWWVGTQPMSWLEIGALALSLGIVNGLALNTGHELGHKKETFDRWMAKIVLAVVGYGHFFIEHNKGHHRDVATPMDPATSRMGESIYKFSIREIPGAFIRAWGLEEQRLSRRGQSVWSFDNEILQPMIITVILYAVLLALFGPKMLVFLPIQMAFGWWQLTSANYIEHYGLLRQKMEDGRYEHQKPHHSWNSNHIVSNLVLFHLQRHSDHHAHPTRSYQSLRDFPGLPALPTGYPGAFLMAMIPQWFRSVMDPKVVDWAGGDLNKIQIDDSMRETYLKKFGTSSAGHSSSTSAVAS

SMILES: C=Cc1ccc(Br)cc1 [4-Bromo styrene]
- Epoxides concentration [1]: Positive^[c]

SMILES: C1=Cc2ccccc2C1 [Indene]
- ee-value of the epoxides [1]: 97.9%
- Epoxides concentration [1]: 0.42 mM

SMILES: C/C=C/c1ccccc1 [Trans-β-Methylstyrene]
- ee-value of the epoxides [1]: 97.6%
- Epoxides concentration [1]: 0.28 mM

SMILES: CSc1ccccc1 [Thioanisole]
- ee-value of the epoxides [1]: 23.3%
- Epoxides concentration [1]: 0.33 (Methyl mM

SMILES: C=Cc1ccc(Cl)cc1 [4-Chloro styrene]
- Epoxides concentration [1]: Positive^[c]

SMILES: C=Cc1cccc(Cl)c1 [3-Chloro-styrene]
- Epoxides concentration [1]: 0.37 mM

SMILES: C=Cc1ccc(OC)cc1 [4-Methoxy styrene]
- Epoxides concentration [1]: Positive^[c]

SMILES: C=Cc1ccccc1 [Styrene]
- Epoxides concentration ([2]; 20 μM FAD): 0.33 mM
- ee-value of the epoxides ([2]; (S)): <98 (S)^[a] %

SMILES: Cc1cccc(CCO)c1 [3-methylphenethylalcohol]
- 3-methylphenethylalcohol produced [3]: about 0.015 mM

SMILES: C=Cc1ccc(F)cc1 [4-Fluoro styrene]
- Epoxides concentration [1]: Positive^[c]

SMILES: C1=Cc2ccccc2CC1 [1,2-Dihydronaphthalene]
- ee-value of the epoxides [1]: 98.9%
- Epoxides concentration [1]: 0.23 mM

SMILES: CCSc1ccccc1 [Phenyl ethyl sulfide]
- Epoxides concentration [1]: Positive^[c]

SMILES: C=Cc1ccc(C)cc1 [4-Methyl-styrene]
- Epoxides concentration [1]: 0.29 mM

SMILES: OO [H2O2, hydrogen peroxide]
- CytC enzymatic activity after preincubation (sulfoxidation of thioanisol) (CytC; CytC 15 μM, 1 mM hydrogen peroxide, 10 minutes): almost complete loss of enzymatic activity
- dE (408 nm)/dt (CytC; [CytC] 5 μM, [H2O2] 5 mM): -0.0116 min⁻¹
- dE (408 nm)/dt (CytC; [CytC] 5 μM, [H2O2] 10 mM): -0.0231 min⁻¹
- dE (408 nm)/dt (CytC; [CytC] 5 μM, [H2O2] 20 mM): -0.0399 min⁻¹
- dE (408 nm)/dt (CytC; [CytC] 7.5 μM, [H2O2] 10 mM): -0.0281 min⁻¹
- dE (408 nm)/dt (CytC; [CytC] 10 μM, [H2O2] 5 mM): -0.0234 min⁻¹
- dE (408 nm)/dt (CytC; [CytC] 10 μM, [H2O2] 7.5 mM): -0.0330 min⁻¹
- dE (408 nm)/dt (CytC; [CytC] 10 μM, [H2O2] 10 mM): -0.0438 min⁻¹
- dE (408 nm)/dt (CytC; [CytC] 10 μM, [H2O2] 15 mM): -0.0637 min⁻¹
- dE (408 nm)/dt (CytC; [CytC] 10 μM, [H2O2] 20 mM): -0.0821 min⁻¹
